Results from patent publication US12377110B2, “Fospropofol methods and compositions” (Epalex Corporation, priority 2019, dated 2025).

How the values were obtained:
[1] = Study No. 15-4 toxicokinetics of fospropofol and propofol in plasma; type: in vivo, Beagle dogs; conditions: for Tmax: read-out: Fospropofol Tmax; for AUC(0-t): read-out: Fospropofol AUC0-6 hr
Procedure: The purpose of Study No. 15-4 (GLP) was to determine the potential toxicity of fospropofol in Beagle dogs when administered once daily by oral gavage for 14 days. […] Because the treatment-related clinical observations (consistent with the expected transient sedative actions of fospropofol) and effects on hematology and clinical chemistry parameters were considered nonadverse, the NOAEL was determined to be 160 mg/kg/day (3200 mg/m^2/day).

[2] = Study No. 15-3 toxicokinetics of fospropofol and propofol in plasma; type: in vivo, Sprague-Dawley rats; conditions: for AUC(0-t) / Cmax / Tmax: Sprague-Dawley, rat, plasma, po, oral gavage fospropofol disodium; for AUC(0-t): read-out: Fospropofol AUC0-6 hr; for Cmax: read-out: Fospropofol Cmax; for Tmax: read-out: Fospropofol Tmax
Procedure: The purpose of Study No. 15-3 (GLP) was to determine the potential toxicity of fospropofol in Sprague-Dawley rats when administered once daily by oral gavage for 14 days. […] The cause of death for the three 250 mg/kg/day group main study females found dead could not be determined, but was considered related to the pharmacodynamic effects of fospropofol, based on the time of death relative to the time of close administration, and the clinical signs recorded before death. Clinical observations during the closing period for these animals included labored breathing, prostrate, splayed hindlimbs, uncoordinated movement, decreased activity, and eyes closed.

[3] = Study A16 Part 2: PK of a single dose of 1200 mg fospropofol disodium following a high-fat meal; type: in vivo, human
Procedure: Part 2 of Study A16 was a double-blind, placebo-controlled, single-close pilot study to investigate the PK, safety, and tolerability of 1200 mg of fospropofol disodium administered to healthy adult men and women following a high-fat meal.
Subjects were healthy adults (age 18-55 years inclusive, BMI 18-29.9 kg/m^2). A separate cohort of 15 subjects was randomly assigned to receive a single oral dose of either fospropofol disodium (n=12) or matching placebo (n=3) within 30 minutes (±1 minute) after the start of a standardized high-fat meal.
Subjects were admitted to the clinical unit for an overnight fast (Day −1), administered study drug on Day 1 within 30 minutes of the start a standardized high-fat meal, and remained in the clinical unit until Day 2.
Fospropofol disodium was formulated as powder in 6 HPMC capsules, each capsule containing 200 mg of fospropofol disodium (weight adjusted for water content). Placebo was administered as 6 matching capsules.

[4] = female, beagle, dog, plasma, po, 50 mg/kg, oral gavage fospropofol disodium, Female, 50 mg/kg, Day 1
[5] = female, beagle, dog, plasma, po, 50 mg/kg, oral gavage fospropofol disodium, Female, 50 mg/kg, Day 14
[6] = female, beagle, dog, plasma, po, 100 mg/kg, oral gavage fospropofol disodium, Female, 100 mg/kg, Day 1
[7] = female, beagle, dog, plasma, po, 100 mg/kg, oral gavage fospropofol disodium, Female, 100 mg/kg, Day 14
[8] = female, beagle, dog, plasma, po, 160 mg/kg, oral gavage fospropofol disodium, Female, 160 mg/kg, Day 1
[9] = female, beagle, dog, plasma, po, 160 mg/kg, oral gavage fospropofol disodium, Female, 160 mg/kg, Day 14
[10] = male, beagle, dog, plasma, po, 50 mg/kg, oral gavage fospropofol disodium, Male, 50 mg/kg, Day 1
[11] = male, beagle, dog, plasma, po, 50 mg/kg, oral gavage fospropofol disodium, Male, 50 mg/kg, Day 14
[12] = male, beagle, dog, plasma, po, 100 mg/kg, oral gavage fospropofol disodium, Male, 100 mg/kg, Day 1
[13] = male, beagle, dog, plasma, po, 100 mg/kg, oral gavage fospropofol disodium, Male, 100 mg/kg, Day 14
[14] = male, beagle, dog, plasma, po, 160 mg/kg, oral gavage fospropofol disodium, Male, 160 mg/kg, Day 1
[15] = male, beagle, dog, plasma, po, 160 mg/kg, oral gavage fospropofol disodium, Male, 160 mg/kg, Day 14
[16] = female, 50 mg/kg, Female, 50 mg/kg, Day 1
[17] = female, 50 mg/kg, Female, 50 mg/kg, Day 14
[18] = female, 100 mg/kg, Female, 100 mg/kg, Day 1
[19] = female, 100 mg/kg, Female, 100 mg/kg, Day 14
[20] = female, 250 mg/kg, Female, 250 mg/kg, Day 1
[21] = female, 250 mg/kg, Female, 250 mg/kg, Day 14
[22] = male, 50 mg/kg, Male, 50 mg/kg, Day 1
[23] = male, 50 mg/kg, Male, 50 mg/kg, Day 14
[24] = male, 100 mg/kg, Male, 100 mg/kg, Day 1
[25] = male, 100 mg/kg, Male, 100 mg/kg, Day 14
[26] = male, 250 mg/kg, Male, 250 mg/kg, Day 1
[27] = male, 250 mg/kg, Male, 250 mg/kg, Day 14

For `CC(C)c1cccc(C(C)C)c1OCOP(=O)(O)O` [fospropofol, (2,6-diisopropylphenoxy)methyl dihydrogen phosphate], the “Sex differences in fospropofol Cmax or AUC0-6h” value ([1]; 50, 100, and 160 mg/kg/day for 14 days) was “no clear sex differences”, the Tmax ([1]; Beagle, dog, plasma, oral, range over all groups) was 5 to 60 min and the “Increase of fospropofol Cmax and AUC0-6hr with dose” value ([1]; Days 1 and 14, males and females (except females on Day 14)) was “less than close proportional”. It also gave a half-life ([1]; both sexes, Beagle, dog, plasma, oral, males and females, read-out: Fospropofol apparent individual terminal half-lives) of 18 to 36 min, a Cmax [1, 4] of 3680 ng/mL and an AUC(0-t) [1, 4] of 4710 ng·h/mL. The Tmax [1, 4] was 30 to 60 min, the Cmax [1, 5] was 3770 ng/mL and the AUC(0-t) [1, 5] was 5730 ng·h/mL. It also gave a Tmax [1, 5] of 30 to 60 min, a Cmax [1, 6] of 10100 ng/mL and an AUC(0-t) [1, 6] of 11900 ng·h/mL. For the same molecule, the Tmax [1, 6] was 15 to 30 min, the Cmax [1, 7] was 9310 ng/mL and the AUC(0-t) [1, 7] was 15100 ng·h/mL. It also gave a Tmax [1, 7] of 30 to 60 min, a Cmax [1, 8] of 7380 ng/mL and an AUC(0-t) [1, 8] of 11200 ng·h/mL. The Tmax [1, 8] was 15 to 60 min, the Cmax [1, 9] was 12700 ng/mL and the AUC(0-t) [1, 9] was 16000 ng·h/mL. For the same molecule, the Tmax [1, 9] was 15 to 60 min, the Cmax [1, 10] was 5130 ng/mL and the AUC(0-t) [1, 10] was 7710 ng·h/mL. For the same molecule, the Tmax [1, 10] was 30 to 60 min, the Cmax [1, 11] was 3300 ng/mL and the AUC(0-t) [1, 11] was 4860 ng·h/mL. For the same molecule, the Tmax [1, 11] was 30 to 60 min, the Cmax [1, 12] was 9480 ng/mL and the AUC(0-t) [1, 12] was 11700 ng·h/mL. The Tmax [1, 12] was 30 to 60 min, the Cmax [1, 13] was 6340 ng/mL and the AUC(0-t) [1, 13] was 6340 ng·h/mL. For the same molecule, the Tmax [1, 13] was 15 to 60 min, the Cmax [1, 14] was 10000 ng/mL and the AUC(0-t) [1, 14] was 13500 ng·h/mL. For the same molecule, the Tmax [1, 14] was 15 to 60 min, the Cmax [1, 15] was 6970 ng/mL and the AUC(0-t) [1, 15] was 9000 ng·h/mL. For the same molecule, the Tmax [1, 15] was 4.98 to 60 min, the “Increase of fospropofol Cmax and AUC0-6hr with dose” value ([2]; 50, 100, and 250 mg/kg/day, Day 1 and Day 14) was “greater than close-proportional” and the AUC(0-t) [2, 16] was 166 ng·h/mL. It also gave a Cmax [2, 16] of 582 ng/mL, a Tmax [2, 16] of 4.98 min and an AUC(0-t) [2, 17] of 160 ng·h/mL. It also gave a Cmax [2, 17] of 341 ng/mL, a Tmax [2, 17] of 15 min and an AUC(0-t) [2, 18] of 827 ng·h/mL. The Cmax [2, 18] was 1630 ng/mL, the Tmax [2, 18] was 4.98 min and the AUC(0-t) [2, 19] was 1170 ng·h/mL. The Cmax [2, 19] was 2560 ng/mL, the Tmax [2, 19] was 4.98 min and the AUC(0-t) [2, 20] was 4630 ng·h/mL. For the same molecule, the Cmax [2, 20] was 8400 ng/mL, the Tmax [2, 20] was 4.98 min and the AUC(0-t) [2, 21] was 3810 ng·h/mL. The Cmax [2, 21] was 8440 ng/mL, the Tmax [2, 21] was 4.98 min and the “Fospropofol AUC0-6hr following repeated administration” value ([2]; male and female rats) was “did not appear to change”. It also gave an AUC(0-t) [2, 22] of 97.1 ng·h/mL, a Cmax [2, 22] of 178 ng/mL and a Tmax [2, 22] of 4.98 min. The AUC(0-t) [2, 23] was 96.9 ng·h/mL, the Cmax [2, 23] was 149 ng/mL and the Tmax [2, 23] was 4.98 min. It also gave an AUC(0-t) [2, 24] of 386 ng·h/mL, a Cmax [2, 24] of 930 ng/mL and a Tmax [2, 24] of 4.98 min. It also gave an AUC(0-t) [2, 25] of 370 ng·h/mL, a Cmax [2, 25] of 1360 ng/mL and a Tmax [2, 25] of 4.98 min. The AUC(0-t) [2, 26] was 3720 ng·h/mL, the Cmax [2, 26] was 8510 ng/mL and the Tmax [2, 26] was 4.98 min. The AUC(0-t) [2, 27] was 2130 ng·h/mL, the Cmax [2, 27] was 5020 ng/mL and the Tmax [2, 27] was 4.98 min. For the same molecule, the “Dependence of systemic exposure on sex” value ([2]; rats, 14 days oral gavage fospropofol disodium) was “greater exposure in females”, the “Effect of high-fat meal on exposure” value ([3]; 1200 mg within 30 minutes after the start of a high-fat meal) was “significant reduction in exposure” and the “Mean exposure to fospropofol (both Cmax and AUC) under fed conditions relative to fasting” value ([3]; 1200 mg, high-fat meal vs fasting) was “approximately 24%”. For the same molecule, the Tmax ([3]; both sexes, human, plasma, oral, 1200 mg, fed, no appreciable effect, read-out: Fospropofol Tmax (median)) was 20 min, the AUC(0-inf) ([3]; both sexes, human, plasma, oral fospropofol disodium 1200 mg, Fed (Cohort 8), n = 10/12, mean, read-out: Fospropofol AUC0-∞) was 1080 ng·h/mL and the half-life ([3]; both sexes, human, plasma, oral fospropofol disodium 1200 mg, Fed (Cohort 8), n = 10/12, mean, read-out: Fospropofol t1/2 (converted)) was 15.6 min. The Cmax ([3]; both sexes, human, plasma, oral fospropofol disodium 1200 mg, Fed (Cohort 8), n= 12, mean) was 1790 ng/mL, the AUC(0-t) ([3]; both sexes, human, plasma, oral fospropofol disodium 1200 mg, Fed (Cohort 8), n= 12, mean, read-out: Fospropofol AUC0-T) was 993 ng·h/mL and the Tmax ([3]; both sexes, human, plasma, oral fospropofol disodium 1200 mg, Fed (Cohort 8), n= 12, median, read-out: Fospropofol Tmax) was 19.8 min. For the same molecule, the “Fospropofol CL/F” value ([3]; oral fospropofol disodium 1200 mg, Fed (Cohort 8), n = 10/12, mean) was 4122 L/h.
